The values below come from US8927750B2, “Acyloxy- and phosphoryloxy-butadiene-Fe(CO)3 complexes as enzyme-triggered co-releasing molecules” (priority 2011, dated 2015).

What all share (format): biochemical
Test [1] relates to horse skeletal myoglobin (Mb). Put plainly: Carbon monoxide release (Mb-assay) without esterase/lipase. The following applies: for carbon monoxide release without esterase/lipase: Mb solution, closed cell, 37° C.; for carbon monoxide release without esterase/lipase after exposure to air: cell opened to air for 2 s. The protocol:
(§1) For this purpose, a solution of 30 mg Mb in 15 mL buffer was degassed by bubbling with argon for 10 min, then reduced by addition of an excess of Na2S2O4 and degassed again for 10 min. The concentration was determined by measuring a 1:10 diluted solution and using the following equation: A=ελ·c·l with ε408 nm=188000 L mol^−1 cm^−1
(§2) A stock solution of a complex in DMSO and a solution of the esterase in phosphate buffer were added under argon before the cell was closed to prevent re-oxidation of the Fe(II) in the Mb solution to Fe(III). […] Equivalents of the esterase are given relative to the inventive complex.
The Mb solution (c=93 μM) was reduced by the addition of 22 mg (126.4 μmol, 91 eq) of Na2S2O4 in 0.1 mL buffer. 0.7 mg (2.8 μmol) of 2-methoxycyclohexa-1,3-dienetricarbonyliron (0) were dissolved in 70 μL of DMSO to provide a 0.039 M solution. For the measurement, 6 μL (2.39·10^−7 mol, 1.3 eq) of this solution were added to 2.3 mL of the Mb solution (2.14·10^−7 mol, 1 eq).

For test [2], the system named is pig liver esterase (PLE). Also noted: key to cleaved by PLE: “+” indicates kinetic racemic resolution; “−” means that no reaction took place.
Test [3] concerns lipase from Candida rugosa. Set-up: key to cleaved by lipase from Candida rugosa: “+” indicates kinetic racemic resolution; “−” means that no reaction took place.
Test [4] concerns pig liver esterase (PLE). In words: Carbon monoxide release (Mb-assay) with pig liver esterase. The following applies: Mb solution, closed cell, 37° C. As to the method: as §1, §2
The Mb solution (c=76 μM) was reduced by the addition of 23 mg (132.1 μmol, 116 eq) of Na2S2O4 in 0.1 mL buffer. 1.7 mg (6.2 μmol) of rac-96 were dissolved in 160 μL of DMSO to provide a 0.038 M solution. For the measurement, 6 μL (2.29·10^−7 mol, 1.3 eq) of this solution were added to 2.3 mL of the Mb solution (1.75·10^−7 mol, 1 eq) and 70 μL (approximately 0.01 eq) of a solution of 0.7 mg pig liver esterase (PLE) in 240 μL buffer.
The Mb solution (c=56 μM) was reduced by the addition of 22 mg (126.4 μmol, 151 eq) of Na2S2O4 in 0.1 mL buffer. 1.1 mg (3.0 μmol) of rac-13 were dissolved in 100 μL of DMSO to provide a 0.030 M solution. For the measurement, 3 μL (9.06·10^−8 mol, 0.7 eq) of this solution were added to 2.3 mL of the Mb solution (1.28·10^−7 mol, 1 eq) and 70 μL (approximately 0.01 eq) of a solution of 0.6 mg PLE in 240 μL buffer.

The subject of test [5] is lipase from Candida rugosa. Put plainly: Carbon monoxide release (Mb-assay) with lipase from Candida rugosa. Particulars: for carbon monoxide release with lipase from Candida rugosa: Mb solution, closed cell, 37° C. As to the method: as §1, §2
The Mb solution (c=88 μM) was reduced by the addition of 22 mg (126.4 μmol, 95 eq) of Na2S2O4 in 0.1 mL buffer. 3.4 mg (12 μmol) of rac-86 were dissolved in 300 μL of DMSO to provide a 0.041 M solution. For the measurement, 6 μL (2.45·10^−7 mol, 1.2 eq) of this solution were added to 2.3 mL of the Mb solution (2.03·10^−7 mol, 1 eq) and 70 μL (approximately 0.09 eq) of a solution of 5 mg lipase from Candida rugosa in 240 μL buffer.
The Mb solution (c=95 μM) was reduced by the addition of 23 mg (132.1 μmol, 92 eq) of Na2S2O4 in 0.1 mL buffer. 1.8 mg (5.6 μmol) of rac-87 were dissolved in 180 μL of DMSO to provide a 0.031 M solution. For the measurement, 12 μL (3.74·10^−7 mol, […]) of this solution were added to 2.3 mL of the Mb solution (2.19·10^−7 mol, 1 eq) and 140 μL (approximately 0.17 eq) of a solution of 15 mg lipase from Candida rugosa in 500 μL buffer.

Test [6] has as its system lipase from Candida rugosa. Particulars: open tube, 10 mg complex, 20 mg lipase.
Setting [7] is: time 0 min, 12 mg complex, 15 mg enzyme.
Setting [8] is: time 110 min, 12 mg complex, 15 mg enzyme.

Where two headings read alike, the source gives them in different places.

As to `COC1=CCCC=C1.O=[C]=[Fe](=[C]=O)=[C]=O` [2-methoxycyclohexa-1,3-dienetricarbonyliron (0), reference compound], in test [1], the “carbon monoxide release without esterase/lipase” value was “no carbon monoxide release” and the “carbon monoxide release without esterase/lipase after exposure to air” value is given as “no carbon monoxide was released”. Also, in the test with pig liver esterase (PLE) [2] (General Procedure I), the “cleaved by PLE” value was “−” and the “reaction with PLE” value was “did not react”. Also, in test [3] (General Procedure I), the “cleaved by lipase from Candida rugosa” value is on record as “−” and the “reaction with lipase from Candida rugosa” value is “did not react”.

For `CC(=O)OC1=CC(C)(C)CC(OC(C)=O)=C1.[C-]#[O+].[C-]#[O+].[C-]#[O+].[Fe]` [rac-13, reference compound], the “carbon monoxide release with pig liver esterase” value in the test with pig liver esterase (PLE) [4] was “carbon monoxide release”. The “carbon monoxide release without esterase/lipase” value in test [1] was “no significant amount of carbon monoxide was released”. In addition, the “cleaved by PLE” value with pig liver esterase (PLE) [2] (General Procedure I) is reported as “+”. The “conversion (%)” value in the test on pig liver esterase (PLE) [2] (time 15 min, 13 mg complex, 0.8 mg enzyme) is on record as 3%; in the test on pig liver esterase (PLE) [2] (time 30 min, 13 mg complex, 0.8 mg enzyme) it was 12%; in the test with pig liver esterase (PLE) [2] (time 45 min, 13 mg complex, 0.8 mg enzyme), 54%; in the test on pig liver esterase (PLE) [2] (time 150 min, 13 mg complex, 0.8 mg enzyme), 64%; in the test with pig liver esterase (PLE) [2] (time 210 min, 13 mg complex, 0.8 mg enzyme), 80%. Further, the “cleaved by lipase from Candida rugosa” value in test [3] (General Procedure I) is “−”.

As to `CC(=O)OC1=CCCC=C1.[C-]#[O+].[C-]#[O+].[C-]#[O+].[Fe]` [rac-86, (RS)-[η^4-Cyclohexa-1,5-dien-1-yl-tricarbonyliron(0)]acetate], the “carbon monoxide release with lipase from Candida rugosa” value in test [5] is on record as “carbon monoxide release”. In addition, the “carbon monoxide release with pig liver esterase” value in the test on pig liver esterase (PLE) [4] is recorded as “carbon monoxide release”. The “carbon monoxide release without esterase/lipase” value in test [1] was “no carbon monoxide was released”. Also, the “cleaved by PLE” value with pig liver esterase (PLE) [2] (General Procedure I) is on record as “−”. Moreover, the “cleaved by lipase from Candida rugosa” value in test [3] (General Procedure I) is “+”. The “conversion (%)” value is given as 0/0% in test [3] (time 0 min, 8 mg enzyme); 32% in test [3] (time 15 min, 8 mg enzyme); 68% in test [3] (time 30 min, 8 mg enzyme); 82% in test [3] (time 60 min, 8 mg enzyme); 93% in test [3] (time 110 min, 8 mg enzyme); 98% in test [3] (time 240 min, 8 mg enzyme). Moreover, the “conversion (%)” value in test [6] (time 0 min) was 0/0%; in test [6] (time 15 min), 60%; in test [6] (time 30 min) it was 79%; in test [6] (time 60 min), 85%; in test [6] (time 110 min), 97%.

Take `CC(C)(C)C(=O)OC1=CCCC=C1.[C-]#[O+].[C-]#[O+].[C-]#[O+].[Fe]` [rac-87, (RS)-[η^4-Cyclohexa-1,5-dien-1-yl-tricarbonyliron(0)] pivalate]: the “carbon monoxide release with lipase from Candida rugosa” value in test [5] was “no carbon monoxide release”. Moreover, in test [5] (cell opened to air for 2 s after 360 min, conversion of Mb-O2 to MbCO), the “carbon monoxide release with lipase from Candida rugosa after exposure to air” value is “carbon monoxide release”. In addition, the “carbon monoxide release without esterase/lipase after exposure to air” value in test [1] was “no carbon monoxide was released”. Besides, the “cleaved by PLE” value with pig liver esterase (PLE) [2] (General Procedure I) was “−”. The “cleaved by lipase from Candida rugosa” value in test [3] (General Procedure I) was “+”. Also, the “conversion (%)” value in test [3] (time 0 min, 8 mg enzyme) is reported as 0/0%; in test [3] (setting [7]), 0/0%; in test [3] (time 30 min, 8 mg enzyme), 4%; in test [3] (time 60 min, 8 mg enzyme) it was 6%; in test [3] (time 110 min, 8 mg enzyme) it was 8%; in test [3] (setting [8]) it was 47%. Moreover, the “conversion (%)” value is 12% in test [3] (time 240 min, 8 mg enzyme); 60% in test [3] (time 240 min, 12 mg complex, 15 mg enzyme); 47% in test [3] (time 24 h, 8 mg enzyme); 73% in test [3] (time 24 h, 12 mg complex, 15 mg enzyme).

Regarding `CC(=O)OC1=CC=CCC1.[C-]#[O+].[C-]#[O+].[C-]#[O+].[Fe]` [rac-96, (RS)-[θ^4-Cyclohexa-1,3-dien-1-yl-tricarbonyliron(0)]acetate], in the test with pig liver esterase (PLE) [4], the “carbon monoxide release with pig liver esterase” value is recorded as “carbon monoxide release”. Further, the “carbon monoxide release without esterase/lipase” value in test [1] was “no carbon monoxide release”. Moreover, the “cleaved by PLE” value with pig liver esterase (PLE) [2] (General Procedure I) is “+”. Further, the “conversion (%)” value in the test on pig liver esterase (PLE) [2] (time 0 min, 10 mg complex, 1 mg enzyme) is listed as 0%; in the test with pig liver esterase (PLE) [2] (time 120 min, 10 mg complex, 1 mg enzyme), 28%; with pig liver esterase (PLE) [2] (time 180 min, 10 mg complex, 1 mg enzyme), 45%; in the test on pig liver esterase (PLE) [2] (time 300 min, 10 mg complex, 1 mg enzyme), 52%; with pig liver esterase (PLE) [2] (time 420 min, 10 mg complex, 1 mg enzyme) it was 77%; in the test with pig liver esterase (PLE) [2] (time 540 min, 10 mg complex, 1 mg enzyme) it was 84%. The “conversion (%)” value with pig liver esterase (PLE) [2] (time 660 min, 10 mg complex, 1 mg enzyme) is reported as 89%; in test [3] (setting [7]), 0/0%; in test [3] (time 15 min, 12 mg complex, 15 mg enzyme), 43%; in test [3] (time 30 min, 12 mg complex, 15 mg enzyme) it was 57%; in test [3] (time 60 min, 12 mg complex, 15 mg enzyme) it was 76%; in test [3] (setting [8]), 83%. Further, the “conversion (%)” value in test [6] (time 0 min) was 0/0%; in test [6] (time 15 min), 65%; in test [6] (time 30 min), 77%; in test [6] (time 60 min) it was 79%; in test [6] (time 110 min) it was 81%. The “cleaved by lipase from Candida rugosa” value in test [3] (General Procedure I) is reported as “+”.
